# Measured values taken from patent US20070099856A1, “Combined treatment with docetaxel and an epidermal growth factor receptor kinase inhibitor using an intermittent dosing regimen” (priority 2005, published 2007).
# Key:
# [1] = system: patients with advanced solid tumors; assay: Phase I dose escalation Arm A: DOC every 21 days plus weekly erlotinib days 2, 9, 16; type: in vivo, human
# Source text: (§1) One explanation is antagonism due to TKI-induced G1 arrest, reducing cell cycle phase-dependent activity of chemotherapy (see FIG. 1). We hypothesized that pharmacodynamic separation by intermittent delivery of HER1/EGFR TKI with chemotherapy might increase efficacy.
# (§2) Erlotinib (TARCEVA™) was obtained from OSI Pharmaceuticals, Inc. Melville, N.Y.). Docetaxel (TAXOTERE®) is manufactured and sold by Aventis Pharmaceuticals Inc.
# [2] = system: advanced, treatment-refractory NSCLC; details: monotherapy, phase III; cited from earlier work
# [3] = system: patients with advanced solid tumors; assay: Phase I dose escalation Arm B: DOC every 21 days plus erlotinib days 2-16; type: in vivo, human
# Source text: as §1, §2
# NSCLC = details: first-line, in combination with standard chemotherapy, NSCLC phase III; cited from earlier work
SMILES,"Arm A MTD, erlotinib ([1]; weekly (days 2, 9, 16), combined with DOC 70 mg/m^2) [mg]",Survival [2],"Arm B MTD, erlotinib ([3]; day 2-16, combined with DOC 70 mg/m^2) [mg]",Survival (NSCLC),"Arm A MTD, DOC ([1]; IV every 21 days, combined with weekly erlotinib 600 mg) [mg/m^2]","Arm B MTD, DOC ([3]; IV every 21 days, combined with erlotinib 200 mg day 2-16) [mg/m^2]"
"C#Cc1cccc(Nc2ncnc3cc(OCCOC)c(OCCOC)cc23)c1 [erlotinib, [6,7-bis(2-methoxyethoxy)-4-quinazolin-4-yl]-(3-ethynylphenyl)amine]",600,significantly prolonged survival,200,did not improve survival,,
"CC(=O)O[C@@]12CO[C@@H]1C[C@H](O)[C@@]1(C)C(=O)[C@H](O)C3=C(C)[C@@H](OC(=O)[C@H](O)[C@@H](NC(=O)OC(C)(C)C)c4ccccc4)C[C@@](O)([C@@H](OC(=O)c4ccccc4)[C@H]21)C3(C)C [DOC, docetaxel]",,,,,70,70
COc1cc2ncnc(Nc3ccc(F)c(Cl)c3)c2cc1OCCCN1CCOCC1 [gefitinib],,,,did not improve survival,,
